The values that follow come from patent publication US12559490B2, “Compositions and methods for modulating hair growth” (The Regents of the University of California, priority 2020, dated 2026).

Series [1] deals with T1, Mitochondrial Pyruvate Carrier (MPC) (Homo sapiens, UniProt O95563+Q9Y5U8).
T1 sequence (Q9Y5U8 1-109): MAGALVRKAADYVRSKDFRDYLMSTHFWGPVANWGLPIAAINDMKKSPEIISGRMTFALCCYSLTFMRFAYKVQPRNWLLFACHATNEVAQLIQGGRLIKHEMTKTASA
T1 sequence (O95563 1-127): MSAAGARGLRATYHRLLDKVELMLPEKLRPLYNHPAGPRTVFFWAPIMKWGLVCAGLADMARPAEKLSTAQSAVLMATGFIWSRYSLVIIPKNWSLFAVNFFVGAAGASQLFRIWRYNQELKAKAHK
In words: Pyruvate-driven respiration (OCR, XF96) in permeabilized HepG2 cells to test MPC. Type of series: cell-based. The note with it: pyruvate/malate substrate, nine-point dose-response, 1 or 3 replicates.

A short description of series [2]: Solubility testing in a polyethylene glycol/transcutol/ethanol/DMSO formulation. It is filed as physicochemical. The note with it: for Conc.: concentration tested in formulation of about 25-75% polyethylene glycol, 5-20% transcutol, 5-50% ethanol, 5-10% DMSO, room temperature, Notes column says whether it dissolved; for Notes (dissolved / failed to dissolve): stirred 1 hour, overnight or 24 hours at room temperature. An excerpt: Results are detailed in the table below.

The term IC50 denotes the concentration that inhibits the measured activity by half. Read a high IC50 as weaker potency in that assay. In turn, `N#C/C(=C\c1cn(Cc2ccccn2)c2ncccc12)C(=O)O` [PP38, Sodium (E)-2-cyano-3-(1-(pyridin-2-ylmethyl)-1H-pyrrolo[2,3-b]pyridin-3-yl)acrylate] gave a half-maximal inhibitory concentration (IC50) in series [1] of 183 nM. This lies in the sub-micromolar range.
With `N#C/C(=C\c1cn(Cc2cc(C(F)(F)F)cc(C(F)(F)F)c2)c2ncccc12)C(=O)O` [JXL069, reference compound], in series [2], the Conc. was 0.027% w/w and the “Notes (dissolved / failed to dissolve)” value is listed as “Stirred overnight at room temperature; dissolved”. The concentration for half-maximal inhibition (IC50) in series [1] was determined as 51.2 nM.
On to `N#C/C(=C\c1cn(Cc2cccc(C(F)(F)F)c2)c2ncccc12)C(=O)O` [PP27, (E)-2-Cyano-3-(1-(3-(trifluoromethyl)benzyl)-1H-pyrrolo[2,3-b]pyridin-3-yl) acrylic acid], for which, in series [2], the Conc. came to 0.15% w/w and the “Notes (dissolved / failed to dissolve)” value was “Stirred 1 hour at room temperature; dissolved”. In series [1], this molecule had an IC50 of 36.3 nM.
In turn, `N#C/C(=C\c1cn(Cc2ccncc2)c2ncccc12)C(=O)O` [PP40, Sodium (E)-2-cyano-3-(1-(pyridin-4-ylmethyl)-1H-pyrrolo[2,3-b]pyridin-3-yl)acrylate] yielded an IC50 in series [1] of 411 nM.
Regarding `N#C/C(=C\c1cn(Cc2ccccc2C(F)(F)F)c2ncccc12)C(=O)O` [PP26, (E)-2-Cyano-3-(1-(2-(trifluoromethyl)benzyl)-1H-pyrrolo[2,3-b]pyridin-3-yl) acrylic acid], in series [2], the Conc. was 0.1% w/w and the “Notes (dissolved / failed to dissolve)” value was “Stirred 1 hour at room temperature; dissolved”. Also, the IC50 in series [1] is 54 nM.
In turn, `N#C/C(=C\c1cn(Cc2ccccc2F)c2ncccc12)C(=O)O` [PP35, (E)-2-cyano-3-(1-(2-fluorobenzyl)-1H-pyrrolo[2,3-b]pyridin-3-yl)acrylic acid] gave a Conc. in series [2] of 0.1% w/w. Further, half-maximal inhibition in series [1] (IC50) required 34 nM.
In series [1], `N#C/C(=C\c1cn(Cc2ccc(F)cc2)c2ncccc12)C(=O)O` [PP37, (E)-2-cyano-3-(1-(4-fluorobenzyl)-1H-pyrrolo[2,3-b]pyridin-3-yl)acrylic acid] showed a 50% inhibitory concentration (IC50) of 109 nM. This lies in the sub-micromolar range.
In turn, `N#C/C(=C\c1cn(Cc2cccnc2)c2ncccc12)C(=O)O` [PP39, Sodium (E)-2-cyano-3-(1-(pyridin-3-ylmethyl)-1H-pyrrolo[2,3-b]pyridin-3-yl)acrylate] returned an IC50 in series [1] of 262 nM.
Take `N#C/C(=C\c1cn(Cc2cccc(F)c2)c2ncccc12)C(=O)O` [PP36, (E)-2-cyano-3-(1-(3-fluorobenzyl)-1H-pyrrolo[2,3-b]pyridin-3-yl)acrylic acid]: the Conc. in series [2] was 0.1% w/w. This molecule also displayed a half-inhibitory concentration (IC50) in series [1] of 26 nM.
